Data taken from ChEMBL document CHEMBL5120778, “Jatrophane Diterpenoids with Kv1.3 Ion Channel Inhibitory Effects from Euphorbia helioscopia” (J Nat Prod, 2022).

Columns and labels:
[1] = target: T1, Potassium voltage-gated channel subfamily A member 3 (Homo sapiens, UniProt P22001); test: Inhibition of human Kv1.3 expressed in HEK293 cells assessed as inhibition of tetracyclin induced current at 1 uM at holding potential of -80 mV by patch clamp method relative to control; assay type: cell-based
T1 sequence (P22001 whole entry): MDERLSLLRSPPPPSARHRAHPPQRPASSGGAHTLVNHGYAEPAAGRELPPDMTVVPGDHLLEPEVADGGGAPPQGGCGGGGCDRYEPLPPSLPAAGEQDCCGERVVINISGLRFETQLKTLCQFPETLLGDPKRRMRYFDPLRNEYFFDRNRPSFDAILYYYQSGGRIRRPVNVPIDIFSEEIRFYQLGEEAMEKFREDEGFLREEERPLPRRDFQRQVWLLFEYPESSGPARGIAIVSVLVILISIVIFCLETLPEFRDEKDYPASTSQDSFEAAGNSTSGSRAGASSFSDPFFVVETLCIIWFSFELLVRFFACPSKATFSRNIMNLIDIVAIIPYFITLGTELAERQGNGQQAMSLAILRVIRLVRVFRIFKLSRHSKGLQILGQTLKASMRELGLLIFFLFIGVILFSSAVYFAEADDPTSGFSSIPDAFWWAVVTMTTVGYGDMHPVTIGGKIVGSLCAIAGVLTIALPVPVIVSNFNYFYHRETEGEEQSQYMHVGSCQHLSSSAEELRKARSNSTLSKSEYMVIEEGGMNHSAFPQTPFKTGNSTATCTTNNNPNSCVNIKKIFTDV

HEK293 = test: Cytotoxicity against HEK293 cells assessed as reduction in cell proliferation at 30 uM; assay type: toxicity, cell-based; conditions: human, hek293, 30 µM
[2] = target: T1, Potassium voltage-gated channel subfamily A member 3; test: Inhibition of human Kv1.3 expressed in HEK293 cells assessed as inhibition of tetracyclin induced current at 30 uM at holding potential of -80 mV by patch clamp method relative to control; assay type: cell-based
[3] = target: T1, Potassium voltage-gated channel subfamily A member 3; test: Inhibition of human Kv1.3 expressed in HEK293 cells assessed as inhibition of tetracyclin induced current at holding potential of -80 mV by patch clamp method; assay type: cell-based

inhibition [1] [%] | inhibition [2] [%] | IC50 [3] [µM] | SMILES | Activity (HEK293)
10.5 | 95.3 |  | CC(=O)O[C@@H]1[C@H](C)/C=C/C(C)(C)C(=O)C[C@@H](OC(=O)c2cccnc2)/C(C)=C/[C@H]2[C@@H](OC(=O)c3ccccc3)[C@H](C)C[C@]12OC(C)=O | Non-Toxic
4.96 | 88.7 |  | CC(=O)O[C@]12C[C@H](C)[C@H](OC(=O)c3ccccc3)[C@@H]1/C=C(\C)[C@H](O)CC(=O)C(C)(C)C/C=C(\C)C2=O | Non-Toxic
21.1 | 97.4 |  | CC(=O)O[C@@H]1C[C@@H](OC(C)=O)C(C)(C)/C=C/[C@H](C)[C@@H](O)[C@@]2(OC(C)=O)C[C@@H](C)[C@H](OC(=O)c3ccccc3)[C@@H]2/C=C/1C | Non-Toxic
30.9 | 98.7 | 6.5 | CC(=O)O[C@@H]1[C@H](C)[C@@H](C=C(C)C)C(=O)C[C@@H](OC(=O)c2cccnc2)/C(C)=C/[C@H]2[C@@H](OC(=O)c3ccccc3)[C@H](C)C[C@]12OC(C)=O | Non-Toxic
4.72 | 89.4 |  | CC(=O)O[C@@H]1CC(=O)/C(C)=C/[C@H]2[C@@H](OC(=O)c3ccccc3)[C@@H](C)C[C@]2(O)[C@@H](OC(C)=O)[C@@H](C)/C=C/C1(C)C | Non-Toxic
13.4 | 93.9 |  | CC(=O)O[C@]12C[C@@H](C)[C@H](OC(=O)c3ccccc3)[C@@H]1/C=C(\C)[C@H](O)CC(=O)C(C)(C)/C=C/[C@@H](C)[C@H]2O | Non-Toxic
 | 48.1 | 31.9 | Fc1ccc([C@@H]2CCNC[C@H]2COc2ccc3c(c2)OCO3)cc1 [PAROXETINE] | Non-Toxic
50.4 | 93.7 | 0.9 | CC(=O)O[C@@H]1C[C@@H](OC(C)=O)C(C)(C)[C@H](O)/C=C(\C)[C@H](OC(C)=O)[C@@]2(OC(C)=O)C[C@H](C)[C@H](OC(=O)c3ccccc3)[C@@H]2/C=C/1C | Non-Toxic
57 | 98.6 | 0.9 | CC(=O)O[C@@H]1C[C@@H](OC(C)=O)C(C)(C)[C@@H](O)/C=C(\C)C(=O)[C@@]2(OC(C)=O)C[C@H](C)[C@H](OC(=O)c3ccccc3)[C@@H]2/C=C/1C | Non-Toxic
24.3 | 95.7 |  | CC(=O)O[C@@H]1C[C@@H](OC(C)=O)C(C)(C)[C@@H](O)[C@H](O)[C@H](C)[C@H](OC(C)=O)[C@@]2(O)C[C@H](C)[C@H](OC(=O)c3ccccc3)[C@@H]2/C=C/1C | Non-Toxic
8.87 | 88.7 |  | CC(=O)O[C@@H]1C[C@@H](OC(C)=O)C(C)(C)/C=C/[C@H](C)[C@H](OC(C)=O)[C@@]2(O)C[C@H](C)[C@H](OC(=O)c3ccccc3)[C@@H]2/C=C/1C [EUPHORNIN] | Non-Toxic
7.36 | 84.4 |  | CC(=O)O[C@@H]1C[C@@H](O)/C(C)=C/[C@H]2[C@@H](OC(=O)c3ccccc3)[C@@H](C)C[C@]2(OC(C)=O)C(=O)/C(C)=C/[C@H](O)C1(C)C | Non-Toxic
24.6 | 85.4 |  | CC(=O)O[C@@H]1CC(=O)C(C)(C)/C=C/[C@@H](C)[C@@H](O)[C@@]2(OC(C)=O)C[C@H](C)[C@H](OC(=O)c3ccccc3)[C@@H]2/C=C/1C | Non-Toxic
6.06 | 85.6 |  | CC(=O)O[C@@H]1C[C@@H](O)/C(C)=C/[C@H]2[C@@H](OC(=O)c3ccccc3)[C@H](C)C[C@]2(OC(C)=O)C(=O)/C(C)=C/[C@H](O)C1(C)C | Non-Toxic
2.38 | 94.6 |  | CC(=O)O[C@@H]1[C@H](C)/C=C/C(C)(C)C(=O)C[C@@H](O)/C(C)=C/[C@H]2[C@@H](OC(=O)c3ccccc3)[C@H](C)C[C@]12OC(C)=O | Non-Toxic
5.67 | 90.7 |  | CC(=O)O[C@]12C[C@@H](C)[C@H](OC(=O)c3ccccc3)[C@@H]1/C=C(\C)[C@H](O)CC(=O)C(C)(C)[C@@H](O)/C=C(\C)C2=O | Non-Toxic
21 | 96.2 |  | CC(=O)O[C@@H]1C[C@@H](OC(C)=O)C(C)(C)[C@H](O)[C@H]2O[C@@]3(C[C@H](C)[C@H](OC(=O)c4ccccc4)[C@@H]3/C=C/1C)[C@@H](OC(C)=O)[C@H]2C | Non-Toxic
5.94 | 96.9 |  | CC(=O)O[C@@H]1[C@@H](C)/C=C/C(C)(C)C(=O)C[C@@H](OC(C)=O)/C(CO)=C/[C@H]2[C@@H](OC(=O)c3ccccc3)[C@H](C)C[C@]12OC(C)=O | Non-Toxic
6.16 | 74.4 |  | CC(=O)O[C@@H]1C[C@@H](OC(C)=O)C(C)(C)/C=C/[C@H](C)[C@H](OC(C)=O)[C@@]2(O)C[C@H](C)[C@H](OC(=O)c3cccc(O)c3)[C@@H]2/C=C/1C | Non-Toxic
8.34 | 90 |  | CC(=O)O[C@@H]1[C@@H](C)/C=C/C(C)(C)[C@H](OC(C)=O)C[C@@H](OC(C)=O)/C(C)=C/[C@H]2[C@@H](OC(=O)c3ccccc3)[C@@H](C)C[C@]12OC(C)=O | Non-Toxic
5.38 | 97.5 |  | CC(=O)O[C@@H]1[C@H](C)/C=C/C(C)(C)C(=O)C[C@@H](OC(C)=O)/C(CO)=C/[C@H]2[C@@H](OC(=O)c3ccccc3)[C@H](C)C[C@]12OC(C)=O | Non-Toxic
